This test concerns CD4+ clone 436/B6.37 (B6/37). In words: IFN-γ/TNF production by CD4+ clone B6/37 (clone 37) stimulated with peptide- or protein-pulsed EBV-B cells. The format is cell-based, human. Conditions: for IFN-γ production by clone 37: autologous LB 1555 EBV-B cells; for IFN-γ production by clone B6/37, truncated peptides: autologous EBV-B cells pulsed with truncated peptides (FIG. 8). As for the experimental part:
The microcultures that contained proliferating CD4^+ T cells were assessed around 35 days after the start of the culture for their capacity to produce TNF and/or IFN-γ when stimulated with autologous EBV-B cells pulsed with the His-MAGE-A3 protein. Autologous EBV-B cells (500,000/ml) were incubated for 18-20 hours at 37° C. in the presence of 20 μg/ml of His-MAGE-A3 protein, or Ovalbumin (Sigma) as a negative control. EBV-B cells referred to herein are B cells which were immortalized with Epstein Barr virus. The EBV-B cells were prepared according to art-standard procedures. Protein-pulsed EBV-B cells were washed and added at 5,000 per round-bottomed microwell to 2,500 CD4^+ T lymphocytes in 150 μl of complete Iscove's medium supplemented with L-glutamine, L-arginine, L-asparagine, 10% human serum and IL-2 (25 U/ml). After 18-20 hours, supernatants were harvested and assessed for TNF content by testing the cytotoxic effect of the supernatants on TNF-sensitive WEHI 164 clone 13 cells as previously described (Espevik and Nissen-Meyer, J. Immunol. Methods 95:99-105, 1986) in a MTT colorimetric assay as previously described (Hansen et al., J. Immunol. Methods 119:203-210, 1989; Traversari et al., Immunogenetics 35:145-152, 1992). IFN-γ production was measured using an ELISA assay developed in our laboratory (see below) with reagents from Medgenix Diagnostics-Biosource (Fleurus, Belgium). Inhibition with mAbs W6/32 (anti-HLA class I) or 2B6 (anti-HLA-DR) was performed by addition of a 1/20 dilution of ascites during the experiment. Cytokine secretion in response to autologous EBV-B cells pulsed with MAGE-A3 was considered significant if it was at least twofold above the background response of T cells to EBV-B cells pulsed with ovalbumin, and if it exceeded 500 pg of IFN-γ or 50 pg/ml of TNF per ml.
In order to identify the MAGE-A3 peptides recognized by these CD4^+ clones, 16 amino acid peptides, corresponding to parts of the MAGE-A3 protein sequence were synthesized, loaded on the autologous EBV-B cells and tested for recognition (FIGS. 4 and 5). Peptides were synthesized using F-moc for transient NH2-terminal protection and were characterized using mass spectrometry. […] Lyophilized synthetic peptides were dissolved in DMSO (Merck) and used at a final concentration of 500 μM, 50 μM or 5 μg/ml. EBV-B cells (5,000 per round-bottomed microwell) were incubated 2 hours at 37° C., 8% CO2 in the presence of the different peptides, the indicated concentrations representing the peptide concentration during the incubation step. CD4^+ clones were then added at 2,500 cells per well. Assay medium was Iscove's medium supplemented with L-glutamine, L-arginine, L-asparagine, 10% human serum and IL-2 (25 U/ml). After 18-20 hours, supernatants were harvested and assessed for TNF-α and/or IFN-γ secretion. IFN-γ production was measured using an ELISA test (20-4000 pg/ml) developed in the laboratory with reagents from Medgenix Diagnostics-Biosource (Fleurus, Belgium).
To further define the HLA-restriction element utilized by clone B6/37, additional EBV-B cell lines were used for peptide presentation as described above (FIG. 7).
Unlike HLA-class I-restricted peptides, class II-restricted peptides usually vary in length and tolerate extensions at both the amino and carboxy termini, because they are not fixed by their ends in the groove. It is therefore difficult to define precisely the length of the antigenic peptide. Therefore a large number of MAGE-A3 peptides were tested at different concentrations (Tables IV and V). […] 2500 cells of clone 37 were then cocultured for 20 h in round-bottomed microwells with 5000 peptide-pulsed cells. IFN-γ released in the supernatant of the cocultures was measured in an ELISA assay. The experiments were performed in triplicate.

Setting [1] is: peptide concentration 100 ng/ml.
Where [2] appears, read: peptide concentration 300 ng/ml.
[3] abbreviates: peptide concentration 1000 ng/ml.

The values below come from patent US6716809B1, “Mage-A3 peptides presented by HLA class molecules” (priority 1997, dated 2004).

Where only a bound is given, the exact number is not on record here.

Take “VAELVHFLLLKYRAR (listed as Homo sapiens)”: the “IFN-γ production by clone 37” value (peptide concentration 1 ng/ml) is 146 pg/mL; the “IFN-γ production by clone 37” value (peptide concentration 3 ng/ml) was determined as 262 pg/mL; the “IFN-γ production by clone 37” value (peptide concentration 10 ng/ml) was 779 pg/mL; the “IFN-γ production by clone 37” value (peptide concentration 30 ng/ml) is 2963 pg/mL; the “IFN-γ production by clone 37” value under setting [1] is greater than 4000 pg/mL; the “IFN-γ production by clone 37” value under setting [2] was greater than 4000 pg/mL. Under setting [3], the “IFN-γ production by clone 37” value was greater than 4000 pg/mL.
Turning to “VAELVHFLLLKYRARE (listed as Homo sapiens)”, the “IFN-γ production by clone 37” value reads like this: (peptide concentration 1 ng/ml) 30 pg/mL; (peptide concentration 3 ng/ml) 300 pg/mL; (peptide concentration 10 ng/ml) 376 pg/mL; (peptide concentration 30 ng/ml) 1647 pg/mL; under setting [1], greater than 4000 pg/mL; under setting [2], greater than 4000 pg/mL. Further, the “IFN-γ production by clone 37” value under setting [3] was greater than 4000 pg/mL.
Take AELVHFLLLKYRAR (listed as Homo sapiens): under “conclusion from Table IV”, the “recognition of short peptide by clone 37” value is listed as “well recognized”. The “IFN-γ production by clone 37” value reads like this: (peptide concentration 1 ng/ml) 151 pg/mL; (peptide concentration 3 ng/ml) 272 pg/mL; (peptide concentration 10 ng/ml) 802 pg/mL; (peptide concentration 30 ng/ml) 2862 pg/mL; under setting [1], greater than 4000 pg/mL; under setting [2], greater than 4000 pg/mL. Besides, the “IFN-γ production by clone 37” value under setting [3] is greater than 4000 pg/mL.
Regarding “VHFLLLKYRA (listed as Homo sapiens) [MAGE-A3117-126]”, the “IFN-γ production by clone B6/37, truncated peptides” value is reported as “reduced amounts”.
Consider AELVHFLLLKYRA (listed as Homo sapiens), for which the “IFN-γ production by clone 37” value (peptide concentration 1 ng/ml) was 134 pg/mL; the “IFN-γ production by clone 37” value (peptide concentration 3 ng/ml) is 139 pg/mL; the “IFN-γ production by clone 37” value (peptide concentration 10 ng/ml) was found to be 620 pg/mL; the “IFN-γ production by clone 37” value (peptide concentration 30 ng/ml) worked out at 2523 pg/mL; the “IFN-γ production by clone 37” value under setting [1] was greater than 4000 pg/mL; the “IFN-γ production by clone 37” value under setting [2] is greater than 4000 pg/mL. Besides, the “IFN-γ production by clone 37” value under setting [3] was greater than 4000 pg/mL.
As to “ELVHFLLLKYRA (listed as Homo sapiens) [MAGE-A3115-126]”, the “IFN-γ production by clone B6/37, truncated peptides” value is reported as “induced significant production”.
For ELVHFLLLKYRARE (listed as Homo sapiens), the “IFN-γ production by clone 37” value was 25 pg/mL (peptide concentration 1 ng/ml); 160 pg/mL (peptide concentration 3 ng/ml); 166 pg/mL (peptide concentration 10 ng/ml); 1087 pg/mL (peptide concentration 30 ng/ml); 3095 pg/mL under setting [1]; greater than 4000 pg/mL under setting [2]. The “IFN-γ production by clone 37” value under setting [3] was greater than 4000 pg/mL.
“MAGE-A3116-126: shortened MAGE-A3 peptide, residues 116-126 (LVHFLLLKYRA; listed as Homo sapiens)”: the “IFN-γ production by clone B6/37, truncated peptides” value is on record as “reduced amounts”.
Consider VAELVHFLLLKYRA (listed as Homo sapiens), for which the “IFN-γ production by clone 37” value is 7 pg/mL (peptide concentration 1 ng/ml); 179 pg/mL (peptide concentration 3 ng/ml); 87 pg/mL (peptide concentration 10 ng/ml); 648 pg/mL (peptide concentration 30 ng/ml); 2534 pg/mL under setting [1]; greater than 4000 pg/mL under setting [2]. The “IFN-γ production by clone 37” value under setting [3] is greater than 4000 pg/mL.
“AELVHFLLLKYRARE (listed as Homo sapiens)”: the “IFN-γ production by clone 37” value (peptide concentration 1 ng/ml) was found to be 38 pg/mL; the “IFN-γ production by clone 37” value (peptide concentration 3 ng/ml) turned out to be 230 pg/mL; the “IFN-γ production by clone 37” value (peptide concentration 10 ng/ml) was 235 pg/mL; the “IFN-γ production by clone 37” value (peptide concentration 30 ng/ml) came to 1473 pg/mL; the “IFN-γ production by clone 37” value under setting [1] came out at 3837 pg/mL; the “IFN-γ production by clone 37” value under setting [2] was greater than 4000 pg/mL. In addition, the “IFN-γ production by clone 37” value under setting [3] was greater than 4000 pg/mL.
On to ELVHFLLLKYRAR (listed as Homo sapiens), for which the “IFN-γ production by clone 37” value is 47 pg/mL (peptide concentration 1 ng/ml); 192 pg/mL (peptide concentration 3 ng/ml); 333 pg/mL (peptide concentration 10 ng/ml); 1899 pg/mL (peptide concentration 30 ng/ml); 3633 pg/mL under setting [1]; greater than 4000 pg/mL under setting [2]. Further, under setting [3], the “IFN-γ production by clone 37” value is greater than 4000 pg/mL.
For the substance “MAGE-A3118-126: shortened MAGE-A3 peptide, residues 118-126”, the “IFN-γ production by clone B6/37, truncated peptides” value is reported as “did not induce the production of significant amounts”.
